Source: patent publication US20250333745A1, “METHODS AND COMPOSITIONS FOR TREATMENT OF POLYCYSTIC KIDNEY DISEASE” (Regulus Therapeutics Inc., priority 2016, published 2025)

How the values were obtained:
[1] = In vitro metabolic stability in human liver lysate; format: in vitro ADME; conditions: 24-hour incubation of RG4326
Description: (§1) Due to their reduced capacity for serum protein binding, which is a property that drives oligonucleotide distribution in the body, short oligonucleotides are not necessarily expected to have pharmacokinetic properties that make them suitable for use as drugs. RG4326 was incubated in mouse, monkey or human liver homogenate. The identity and concentration of RG4326 and metabolites was determined after a 24-hour incubation. RG4326 and metabolites were extracted using liquid-liquid extraction (LLE) and/or solid-phase extraction (SPE), which were then analyzed for identity and concentration using ion-pairing-reversed-phase high performance liquid chromatography coupled with time-of-flight mass spectrometry (IP—RP-HPLC-TOF).

[2] = In vitro metabolic stability in monkey liver lysate; format: in vitro ADME; conditions: 24-hour incubation of RG4326
Description: as §1

[3] = In vitro metabolic stability in mouse liver lysate; format: in vitro ADME; conditions: 24-hour incubation of RG4326
Description: Metabolic stability was evaluated by incubating each anti-miR-17 compound in a mouse liver lysate. After 24 hours, the percentage of intact compound remaining is calculated. Compounds that are not stable following a 24-hour incubation are potentially not stable in vivo.
as §1

Pcy mice = experiment: Efficacy in the Pcy model of PKD; format: in vivo, mouse
From the text: Two experimental models of PKD were used to evaluate efficacy. Pkd2-KO mice spontaneously develop polycystic kidney disease, and were used as a model of ADPKD. See Patel et al., PNAS, 2013; 110 (26): 10765-10770. Pcy mice bearing a mutation in Nphp3 spontaneously develop polycystic kidney disease, with a slower progression of disease than that observed in the Pkd2-KO mice. The Pcy model is used as a model of nephronophthisis. See Happe and Peters, Nat. Rev. Nephrol., 2014; 10:587-601.
Cyst index is a histological measurement of cystic area relative to total kidney area. For this analysis, one kidney was perfused with cold PBS and 4% (wt/vol) paraformaldehyde and then harvested. Kidneys were fixed with 4% paraformaldehyde for 2 hours and then, embedded in paraffin for sectioning. Sagittal sections of kidneys were stained with hematoxylin and eosin (H&E). All image processing steps were automated and took place in freely available and open source software: An R1 script which used functions from the EBImage Bioconductor package2 and the ImageMagick3 suite of image processing tools. Kidney H&E images in Aperio SVS format were converted to TIFF images, and the first frame was retained for image analysis. First, the total kidney section area was calculated using image segmentation. Image segmentation was similarly used to find all internal structures including kidney cyst. A filter was applied to remove all objects less than a mean radius of three pixels. The cystic index is the image area associated with cysts divided by the total kidney areas. Cystic index was separately calculated for longitudinal and transverse kidney sections for each individual animal. Combined cystic index of individual animals were compared for each treatment groups.
RG4326 was tested in the Pcy mouse model. Wild-type mice were used as control group. From four weeks of age, Pcy mice were treated once per week via subcutaneous injection with RG4326 at a dose of 25 mg/kg, tool anti-miR-17 at a dose of 25 mg/kg, control oligonucleotide RG5124 at a dose of 25 mg/kg, or PBS. Each treatment group contained 15 male mice. Three treatments were administered on […] days of age, and weekly thereafter at 6, 7, 8, 9, 10, 11, 12, 13, and 14 weeks of age. Also tested was tolvaptan, a vasopressin V2-receptor antagonist (VRA) that is prescribed to some patients with polycystic kidney disease. Mice were sacrificed at 15 weeks of age. Body weight was recorded. One kidney was extracted and weighed and the other processed for histological analysis to calculate cyst index as described for the study in the Pkhd1/cre; Pkd2^F/F. Blood urea nitrogen (BUN) level and serum creatinine level were measured. Statistical significance was calculated by one-way ANOVA with Dunnett's multiple correction.

[4] = Tissue accumulation in kidney and liver (kidney-to-liver ratio); format: in vivo, mouse; conditions: single dose 30 mg/kg, seven days; for Kidney-to-Liver Ratio PKD Mice: JCK mice
Description: Pharmacokinetic properties and tissue distribution of select compounds were assessed in wild type C57BL6 mice and JCK mice (an experimental model of PKD). Compound was administered to wild type mouse at a dose of 0.3, 3, or 30 mg/kg, or to JCK mice at a dose of 3, 30, or 100 mg/kg. After seven days, mice were sacrificed. Kidney and liver tissues were collected. Concentration of anti-miR-17 compound was measured in liver and kidney. Compounds that accumulate to a greater level in kidney, relative to liver (i.e., have a higher kidney-to-liver ratio) were preferred.
(§2) The miPSA was used to assess the potency of each compound, measured by the displacement score, in wild type and JCK mice. Tissue accumulation of anti-miR-17 compound was measured by extraction of compound using liquid-liquid extraction (LLE) and/or solid-phase extraction (SPE), followed by analysis of the identity and concentration of compound using ion-pairing-reversed-phase high performance liquid chromatography coupled with time-of-flight mass spectrometry (IP—RP-HPLC-TOF).
(§3) Wild type mice were administered a single dose of 3 mg/kg for the miPSA analysis, and a single dose of 30 mg/kg for the tissue accumulation analysis. JCK mice were administered a single dose of 30 mg/kg for both the miPSA and tissue accumulation analyses. Kidney tissue was collected seven days following the administration of anti-miR-17 compound. […] A higher kidney-to-liver ratio is generally preferred for a disease where the primary site of action is the kidney.

miR-17 [5] = experiment: microRNA polysome shift assay (miPSA), kidney target engagement; format: in vivo, mouse; set-up: miPSA Score Wild Type Mice / miPSA Score PKD Mice / miPSA displacement score (mean): scale not given here; conditions: kidney, seven days; for miPSA Score PKD Mice: JCK mice, single dose 30 mg/kg; for miPSA Score Wild Type Mice: single dose 3 mg/kg
Description: (§4) In vivo potency was evaluated using the microRNA polysome shift assay (miPSA). This assay was used to determine the extent to which compounds directly engage the miR-17 target in the kidney in normal and PKD mice. The miPSA relies on the principle that active miRNAs bind to their mRNA targets in translationally active high molecular weight (HMW) polysomes, whereas the inhibited miRNAs reside in the low MW (LMW) polysomes. Treatment with anti-miR results in a shift of the microRNA from HMW polysomes to LMW polysomes. Thus, the miPSA provides a direct measurement of microRNA target engagement by a complementary anti-miR (Androsavich et al., Nucleic Acids Research, 2015, 44: e13).
as §2, §3
as §4, with “The” for “In vivo potency was evaluated using the”, “(miPSA),” for “(miPSA). This assay”, “identify” for “determine the extent to which”, “compounds that” for “compounds”, “engage” for “engage the”, “miR-17” for “miR-17 target”
For this experiment, the PKD model selected was the JCK model, a mouse model of slowly progressing renal cystic disease associated with the same gene that causes human nephronophthisis type 9. Renal cysts in this mouse develop in multiple regions of the nephron.
C57BL6 mice were treated with a single, subcutaneous dose of 0.3, 3, and 30 mg/kg of RG4326 or tool anti-miR-17 (described in Example 1). JCK mice were treated with a single, subcutaneous dose of 3, 30, and 100 mg/kg of RG4326 or tool anti-miR-17. PBS treatment was used as an additional control. At seven days post-treatment, mice were sacrificed, and kidney tissue was isolated for the miPSA. […] The displacement scores following treatment with RG4326 were greater than the displacement scores following treatment with the tool anti-miR-17 compound. The data for wild-type mice and JCK mice are also shown in FIG. 3A and FIG. 3B, respectively.
Pharmacokinetic behavior was assessed by administering a single subcutaneous 30 mg/kg dose of RG4326 or tool anti-miR-17 compound to wild-type mice. At one hour, four hours, eight hours, one day, seven days, 14 days, 28 days and 56 days following the single injection, mice were sacrificed and the mean concentration of anti-miR compound in kidney and liver tissue was measured (ug/g) as described above. The area-under-curve (AUC) was calculated for kidney and liver tissue using the formula ug*h/g, where ug is the amount of oligonucleotide in the tissue, h is the timepoint of tissue collection in hours, and g is the weight of the tissue. The ratio of kidney AUC to liver AUC was determined. Kidney tissue was also processed to the miPSA, to determine target engagement for each compound in this study. […]

[6] = Safety evaluation of RG4047 (pro-inflammatory signal in kidney and liver)
Description: In in vitro assays, the potential for toxicity was assessed using a biochemical fluorescent binding assay (FBA) and a liver or kidney slice assay. The FBA is performed by incubating a fluorescent dye with each compound, and immediately measuring fluorescence. Highly fluorescent compounds have the potential to produce toxicity in vivo. The liver or kidney slice assay is performed by incubating a slice of tissue from a core liver sample isolated from rat. Following a 24-hour incubation, RNA is extracted from the tissue slice, and the expression levels of 18 pro-inflammatory genes are measured. An induction in pro-inflammatory gene expression indicates a potential for pro-inflammatory effects in vivo.
Additional in vivo toxicology assessments were performed by administering to normal mice (Sv129 mice) a single subcutaneous injection of 300 mg/kg of anti-miR-17 compound. After four days, mice were sacrificed, blood was collected for serum chemistry analysis, liver and spleen were weighed, and RNA was isolated from kidney and liver tissues. The expression level of a pro-inflammatory gene, interferon-induced protein with tetratricopeptide repeats (IFIT), was measured.
RG4047 was evaluated for potency in vivo, safety, and distribution to kidney and liver.

miR-17 [7] = experiment: miR-17 luciferase reporter assay in HeLa cells; format: cell-based; conditions: mean
Description: In vitro potency was evaluated using a luciferase reporter assay. A luciferase reporter plasmid for miR-17, with […] in the 3′-UTR of the luciferase gene. Compounds of longer lengths were selected if their maximum inhibition was greater than that of the tool anti-miR-17 compound. As shorter compounds, such as 9-mers, are typically not maximally active in the same assay conditions used for longer compounds, shorter compounds were selected based on maximum inhibition relative to appropriate control compounds. In this way, compounds that are diverse in both length and chemical composition were included in further testing.
One assay employed was the luciferase assay. […] Accordingly, the luciferase assay transfection conditions were optimized for short anti-miR-17 compounds, so that the inhibitory activity of the compounds could be measured.
The luciferase reporter plasmid for miR-17 contained a fully complementary miR-17 binding site in the 3′-UTR of the luciferase gene. HeLa cells were transfected with the microRNA mimic and its cognate luciferase reporter, followed by transfection with anti-miR-17 at doses of […], 3, 10, 30, 100, and 300 nM. At the end of the 24-hour transfection period, luciferase activity was measured. As shown in Table 2-1, RG4047, while not as potent as RG4326, inhibited miR-17 activity in a dose dependent manner. SD indicates standard deviation.
Additional in vitro assays were conducted to further explore the potency of RG4326. A luciferase reporter assay was used to test the ability of RG4326 to inhibit the miR-17 family members miR-17, miR-20a, miR-93, and miR-106b. A luciferase reporter plasmid for each of miR-20a, miR-93, and miR-106b was constructed, with a fully complementary microRNA binding site in the 3′-UTR of the luciferase gene. HeLa cells were transfected with the microRNA mimic and its cognate luciferase reporter, followed by transfection with anti-miR-17 at a dose of 100 nm. […] As RG4326 is 100% complementary to the other miR-17 family members not tested, miR-20b and […], it is expected to inhibit these microRNAs as well.

[8] = 25 mg/kg s.c. for oligonucleotides, sacrificed at 15 weeks of age

Molecule: 5′-ASGSCMAF-3′ [Metabolite 2]
- Ex Vivo Liver Lysate (% Analyte), Human [1]: 0.7%
- Ex Vivo Liver Lysate (% Analyte), Monkey [2]: 2.3%
- Ex Vivo Liver Lysate (% Analyte), Mouse [3]: 0.6%

Molecule: 5′-ASGSCMAFCF-3′ [Metabolite 1]
- Ex Vivo Liver Lysate (% Analyte), Human [1]: 0.6%
- Ex Vivo Liver Lysate (% Analyte), Monkey [2]: 1.8%
- Ex Vivo Liver Lysate (% Analyte), Mouse [3]: 0.3%

Molecule: Cc1ccccc1C(=O)Nc1ccc(C(=O)N2CCCC(O)c3cc(Cl)ccc32)c(C)c1 (stereo not drawn) [Tolvaptan, tolvaptan]
- efficacy on KW/BW ratio, BUN or cyst index (in words) (Pcy mice): not efficacious
- BUN (mean) (Pcy mice; [8]): 24.4
- Cystic Index (mean) (Pcy mice; [8]): 0.26
- KW/BW Ratio (mean) (Pcy mice; [8]): 20.1

Molecule: ASGMCFAFCFUFUFUMGS [Compound 4327]
- Kidney-to-Liver Ratio PKD Mice [4]: 9.4
- Kidney-to-Liver Ratio Wild Type Mice [4]: 24.9
- miPSA Score PKD Mice (miR-17 [5]): 1.53
- miPSA Score Wild Type Mice (miR-17 [5]): 2.85

Molecule: ASGSCMAMCMUMUMUSGS [Compound 4325]
- Kidney-to-Liver Ratio PKD Mice [4]: 5.7
- Kidney-to-Liver Ratio Wild Type Mice [4]: 12.4
- miPSA Score PKD Mice (miR-17 [5]): 2.00
- miPSA Score Wild Type Mice (miR-17 [5]): 1.82

Molecule: ASGSCMASCMUSUMUSGS [Compound 4324]
- Kidney-to-Liver Ratio PKD Mice [4]: 3.9
- Kidney-to-Liver Ratio Wild Type Mice [4]: 5.0
- miPSA Score PKD Mice (miR-17 [5]): 2.53
- miPSA Score Wild Type Mice (miR-17 [5]): 2.81

Molecule: ASGSCSASCSUSUSUSGS [RG4047]
- pro-inflammatory signal (in words) [6]: slight pro-inflammatory signal in both kidney and liver
- Luciferase Fold Derepression (miR-17 [7]; 0.001 nM anti-miR-17, 24-hour transfection): 1
- Luciferase Fold Derepression (miR-17 [7]; 3 nM anti-miR-17, 24-hour transfection): 1.6
- Luciferase Fold Derepression (miR-17 [7]; 10 nM anti-miR-17, 24-hour transfection): 2.2
- Luciferase Fold Derepression (miR-17 [7]; 30 nM anti-miR-17, 24-hour transfection): 3.5
- Luciferase Fold Derepression (miR-17 [7]; 100 nM anti-miR-17, 24-hour transfection): 8.2
- Luciferase Fold Derepression (miR-17 [7]; 300 nM anti-miR-17, 24-hour transfection): 7.5
- Kidney-to-Liver Ratio PKD Mice [4]: 2.1
- Kidney-to-Liver Ratio Wild Type Mice [4]: 4.4
- miPSA Score PKD Mice (miR-17 [5]): 1.80
- miPSA Score Wild Type Mice (miR-17 [5]): 1.76
